Values of other authors in patent US11957681B2, “Liquid dosage forms of Imatinib” (SHORLA PHARMA LTD., priority 2018, dated 2024).

Experiments:
[1] = compared with Imatinib mesylate

Share of the AUC for Imatinib mesylate (circulating metabolite): about 15%
Elimination half-life (imatinib mesylate orally administered): ~40 h
SMILES: Cc1ccc(NC(=O)c2ccc(CN3CCNCC3)cc2)cc1Nc1nccc(-c2cccnc2)n1 [N-desmethyl derivative]
Potency in vitro [1]: potency similar to Imatinib mesylate
